In US10526319B2, “Halogenated quinazolin-THF-amines as PDE1 inhibitors” (H. Lundbeck A/S, priority 2014, dated 2020) one finds IC50 data, which are given here for 36 compounds.

What all share (type): biochemical
Holding throughout (conditions): 15 nM tritium labelled cAMP, 1 h at room temperature

In one assay the target is PDE1C (Homo sapiens, UniProt Q14123). Nature of the assay: PDE1 inhibition assay (SPA, tritium labelled cAMP), PDE1C. Here is the method: (§1) PDE1A, PDE1B and PDE1C assays were performed as follows: the assays was performed in 60 μL samples containing a fixed amount of the PDE1 enzym1 (sufficient to convert 20-25% of the cyclic nucleotide substrate), a buffer (50 mM HEPES pH 7.6; 10 mM MgCl2; 0.02% Tween20), 0.1 mg/ml BSA, 15 nM tritium labelled cAMP and varying amounts of inhibitors. Reactions were initiated by addition of the cyclic nucleotide substrate, and reactions were allowed to proceed for 1 h at room temperature before being terminated through mixing with 20 μL (0.2 mg) yttrium silicate SPA beads (PerkinElmer). The beads were allowed to settle for 1 h in the dark before the plates were counted in a Wallac 1450 Microbeta counter. The measured signals were converted to activity relative to an uninhibited control (100%) and IC50 values were calculated using XlFit (model 205, IDBS).

A further assay has as its target PDE1B (Homo sapiens, UniProt Q01064). Nature of the assay: PDE1 inhibition assay (SPA, tritium labelled cAMP), PDE1B. Here is the method: as §1
For another assay, the target named is PDE1A (Homo sapiens, UniProt P54750). Kind of assay: PDE1 inhibition assay (SPA, tritium labelled cAMP), PDE1A. The protocol: as §1
Chain of PDE1A (P54750 whole entry): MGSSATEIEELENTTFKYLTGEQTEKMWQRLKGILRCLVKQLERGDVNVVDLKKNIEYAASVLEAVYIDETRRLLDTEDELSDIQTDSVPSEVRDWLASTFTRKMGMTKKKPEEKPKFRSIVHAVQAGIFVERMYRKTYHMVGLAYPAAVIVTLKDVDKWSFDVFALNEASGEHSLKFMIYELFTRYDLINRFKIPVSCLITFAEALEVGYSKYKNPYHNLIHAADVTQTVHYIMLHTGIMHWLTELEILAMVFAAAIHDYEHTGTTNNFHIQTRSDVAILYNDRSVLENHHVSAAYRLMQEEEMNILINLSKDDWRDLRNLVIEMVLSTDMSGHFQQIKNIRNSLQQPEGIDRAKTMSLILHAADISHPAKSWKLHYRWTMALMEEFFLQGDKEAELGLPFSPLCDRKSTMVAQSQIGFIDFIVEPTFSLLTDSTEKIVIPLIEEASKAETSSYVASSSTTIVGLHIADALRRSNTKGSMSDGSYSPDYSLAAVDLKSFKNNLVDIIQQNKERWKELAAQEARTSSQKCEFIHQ

Chain of PDE1B (Q01064 whole entry): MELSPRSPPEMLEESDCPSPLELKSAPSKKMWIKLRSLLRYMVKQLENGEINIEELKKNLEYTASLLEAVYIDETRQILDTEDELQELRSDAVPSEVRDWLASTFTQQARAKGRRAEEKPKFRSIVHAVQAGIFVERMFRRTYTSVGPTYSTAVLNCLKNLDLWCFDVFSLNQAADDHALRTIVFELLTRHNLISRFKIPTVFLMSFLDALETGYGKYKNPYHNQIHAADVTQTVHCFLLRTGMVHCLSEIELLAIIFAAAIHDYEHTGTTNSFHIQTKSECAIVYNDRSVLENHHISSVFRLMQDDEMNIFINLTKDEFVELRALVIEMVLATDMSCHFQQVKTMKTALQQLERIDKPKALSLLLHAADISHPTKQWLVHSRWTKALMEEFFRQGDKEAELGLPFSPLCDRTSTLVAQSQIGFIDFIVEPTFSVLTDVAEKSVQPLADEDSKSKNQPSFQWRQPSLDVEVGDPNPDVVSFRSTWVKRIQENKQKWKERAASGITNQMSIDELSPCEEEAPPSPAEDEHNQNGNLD
Chain of PDE1C (Q14123 whole entry): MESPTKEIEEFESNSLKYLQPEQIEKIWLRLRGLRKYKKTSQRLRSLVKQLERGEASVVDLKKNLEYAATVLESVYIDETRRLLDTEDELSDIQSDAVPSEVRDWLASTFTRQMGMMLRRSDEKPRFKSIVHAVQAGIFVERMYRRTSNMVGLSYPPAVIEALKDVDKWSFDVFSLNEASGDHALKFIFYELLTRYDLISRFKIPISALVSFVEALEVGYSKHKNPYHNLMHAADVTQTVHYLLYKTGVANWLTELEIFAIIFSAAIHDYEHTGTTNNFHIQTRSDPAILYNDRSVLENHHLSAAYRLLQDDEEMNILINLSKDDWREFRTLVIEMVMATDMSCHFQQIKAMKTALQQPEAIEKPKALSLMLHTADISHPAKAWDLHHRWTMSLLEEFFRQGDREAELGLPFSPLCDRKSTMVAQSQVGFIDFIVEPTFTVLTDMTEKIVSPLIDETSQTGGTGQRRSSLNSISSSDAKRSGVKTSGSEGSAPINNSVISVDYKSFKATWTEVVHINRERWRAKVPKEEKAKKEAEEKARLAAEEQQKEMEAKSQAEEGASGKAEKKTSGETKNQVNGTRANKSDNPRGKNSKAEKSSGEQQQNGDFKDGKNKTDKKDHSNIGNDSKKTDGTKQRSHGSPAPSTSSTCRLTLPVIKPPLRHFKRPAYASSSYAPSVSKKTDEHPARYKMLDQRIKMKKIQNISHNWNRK

Take `COc1ccc2c(N(C)C3(C)CCOC3)ncnc2c1Cl` (single isomer, unassigned) [11 Stereoisomer 2]: the IC50 (as a rule, the concentration needed to halve the response being measured) at PDE1C was 15 nM; against PDE1B it was 31 nM; against PDE1A, 152 nM.
In the same order, the values of `COc1ccc2c(N(C)C3CCOC3)ncnc2c1F` (single isomer, unassigned) [2 Stereoisomer 2] are 76 nM, 18 nM and 100 nM.
In the same order, the values of `COc1ccc2c(NC3CCOC3C)ncnc2c1F` (single isomer, unassigned) [3 Stereoisomer 3] are 310 nM, 70 nM and 530 nM.
For the compound `COc1ccc2c(NC3(C)CCOC3)ncnc2c1F` (single isomer, unassigned) [1 Stereoisomer 2], the IC50 came to 260 nM against PDE1C, 65 nM against PDE1B and 250 nM on PDE1A.
In the case of `COc1ccc2c(N3CC[C@@H]4OCCC43)ncnc2c1Cl` (single isomer, unassigned) [9 Stereoisomer 1], the IC50 against PDE1C was determined as 23 nM; at PDE1B, 40 nM; against PDE1A, 156 nM.
Taken in the same sequence, the figures for `COc1ccc2c(N(C)C3(C)CCOC3)ncnc2c1F` (single isomer, unassigned) [15 Stereoisomer 1] were 320 nM, 110 nM and 688 nM.
In the same order, the values of `COc1ccc2c(N(C)C3(C)CCOC3C)ncnc2c1F` (single isomer, unassigned) [19 Stereoisomer 4] are 34 nM, 10 nM and 97 nM.
Consider `COc1ccc2c(NC3(C)CCOC3)ncnc2c1F` (single isomer, unassigned) [1 Stereoisomer 1], for which the IC50 against PDE1C worked out at 28 nM; against PDE1B, 9.9 nM; on PDE1A, 50 nM.
Turning to `COc1ccc2c(NC3CCOC3)ncnc2c1Cl` (single isomer, unassigned) [4 Stereoisomer 2], the half-maximal inhibitory concentration (IC50) against PDE1C turned out to be 33 nM; on PDE1B it was 45 nM; on PDE1A, 190 nM.
`COc1ccc2c(NC3CCOC3)ncnc2c1F` (single isomer, unassigned) [16 Stereoisomer 1]: the half-maximal inhibitory concentration (IC50) at PDE1C stood at 1200 nM; at PDE1B, 430 nM; against PDE1A, 1180 nM.
Taken in the same sequence, the figures for `COc1ccc2c(NC3(C)CCOC3C)ncnc2c1F` (single isomer, unassigned) [17 Stereoisomer 1] were 98 nM, 27 nM and 184 nM.
For the compound `COc1ccc2c(N3CC[C@@H]4OCCC43)ncnc2c1F` (single isomer, unassigned) [8 Stereoisomer 1], the IC50 was determined as 60 nM against PDE1C, 21 nM against PDE1B and 72 nM on PDE1A.
Take `COc1ccc2c(NC3CCOC3C)ncnc2c1F` (single isomer, unassigned) [3 Stereoisomer 4]: the IC50 against PDE1C came to 410 nM; on PDE1B it was 120 nM; against PDE1A, 600 nM.
Consider `COc1ccc2c(N3CC[C@@H]4OCCC43)ncnc2c1Cl` (single isomer, unassigned) [9 Stereoisomer 2], for which the IC50 at PDE1C turned out to be 550 nM; against PDE1B, 1200 nM; at PDE1A, 2260 nM.
Taken in the same sequence, the figures for `COc1ccc2c(NC3(C)CCOC3C)ncnc2c1F` (single isomer, unassigned) [17 Stereoisomer 3] were 390 nM, 100 nM and 451 nM.
In the same order, the values of `COc1ccc2c(N(C)C3(C)CCOC3C)ncnc2c1F` (single isomer, unassigned) [19 Stereoisomer 3] are 1200 nM, 420 nM and 2490 nM.
In the same order, the values of `COc1ccc2c(N(C)C3(C)CCOC3C)ncnc2c1Cl` (single isomer, unassigned) [13 Stereoisomer 4] are 13 nM, 26 nM and 300 nM.
As to `COc1ccc2c(N(C)C3(C)CCOC3C)ncnc2c1Cl` (single isomer, unassigned) [13 Stereoisomer 2], the IC50 against PDE1C turned out to be 17 nM; against PDE1B, 34 nM; against PDE1A it was 207 nM.
In the case of `COc1ccc2c(NC3(C)CCOC3C)ncnc2c1Cl` (single isomer, unassigned) [12 Stereoisomer 4], the IC50 against PDE1C amounted to 4 nM; against PDE1B it was 7 nM; on PDE1A it was 76 nM.
Taken in the same sequence, the figures for `COc1ccc2c(N(C)C3(C)CCOC3)ncnc2c1F` (single isomer, unassigned) [15 Stereoisomer 2] were 81 nM, 47 nM and 333 nM.
Taken in the same sequence, the figures for `COc1ccc2c(NC3CCOC3)ncnc2c1Cl` (single isomer, unassigned) [4 Stereoisomer 1] were 200 nM, 310 nM and 790 nM.
Regarding `COc1ccc2c(N(C)C3(C)CCOC3C)ncnc2c1Cl` (single isomer, unassigned) [13 Stereoisomer 3], the IC50 against PDE1C is 5 nM; against PDE1B, 7 nM; against PDE1A it was 85 nM.
In the same order, the values of `COc1ccc2c(N3CC[C@@H]4OCCC43)ncnc2c1F` (single isomer, unassigned) [8 Stereoisomer 2] are 2500 nM, 2200 nM and 4030 nM.
In the same order, the values of `COc1ccc2c(N(C)C3CCOC3C)ncnc2c1Cl` (single isomer, unassigned) [14 Stereoisomer 4] are 14 nM, 30 nM and 285 nM.
Taken in the same sequence, the figures for `COc1ccc2c(N(C)C3CCOC3C)ncnc2c1Cl` (single isomer, unassigned) [14 Stereoisomer 3] were 200 nM, 490 nM and 1530 nM.
Turning to `COc1ccc2c(NC3CCOC3C)ncnc2c1Cl` (single isomer, unassigned) [5 stereoisomer 1], the IC50 on PDE1C stood at 27 nM; against PDE1B, 49 nM; against PDE1A it was 300 nM.
In the same order, the values of `COc1ccc2c(NC3(C)CCOC3C)ncnc2c1F` (single isomer, unassigned) [17 Stereoisomer 2] are 22 nM, 5 nM and 73 nM.
Taken in the same sequence, the figures for `COc1ccc2c(N(C)C3CCOC3)ncnc2c1F` (single isomer, unassigned) [2 Stereoisomer 1] were 1300 nM, 300 nM and 1100 nM.
`COc1ccc2c(N3CC[C@@H]4OCCC43)ncnc2c1Br` (single isomer, unassigned) [10 Stereoisomer 1]: the IC50 stood at 11 nM against PDE1C, 49 nM against PDE1B and 147 nM on PDE1A.
For `COc1ccc2c(N(C)C3(C)CCOC3)ncnc2c1Cl` (single isomer, unassigned) [11 Stereoisomer 1], the IC50 at PDE1C was found to be 33 nM; against PDE1B it was 65 nM; against PDE1A, 292 nM.
Take `COc1ccc2c(N(C)C3CCOC3C)ncnc2c1Cl` (single isomer, unassigned) [14 Stereoisomer 2]: the IC50 on PDE1C stood at 10 nM; at PDE1B it was 18 nM; at PDE1A, 170 nM.
In the same order, the values of `COc1ccc2c(NC3(C)CCOC3)ncnc2c1Cl` (single isomer, unassigned) [7 stereoisomer 2] are 48 nM, 75 nM and 490 nM.
For `COc1ccc2c(N(C)C3CCOC3)ncnc2c1Cl` (single isomer, unassigned) [6 stereoisomer 1], the IC50 came to 140 nM against PDE1C, 330 nM on PDE1B and 1800 nM against PDE1A.
Turning to `COc1ccc2c(NC3(C)CCOC3C)ncnc2c1Cl` (single isomer, unassigned) [12 Stereoisomer 3], the IC50 against PDE1C was determined as 14 nM; against PDE1B, 21 nM; against PDE1A, 145 nM.
Turning to `COc1ccc2c(NC3(C)CCOC3C)ncnc2c1Cl` (single isomer, unassigned) [12 Stereoisomer 2], the IC50 on PDE1C came to 38 nM; against PDE1B, 65 nM; on PDE1A, 286 nM.
Taken in the same sequence, the figures for `COc1ccc2c(NC3(C)CCOC3)ncnc2c1Cl` (single isomer, unassigned) [7 stereoisomer 1] were 11 nM, 23 nM and 200 nM.
